The values below come from patent US20220409637A1, “COVID-19 THERAPEUTICS AND METHODS OF TREATMENT” (priority 2020, published 2022).

Data set [1] relates to viral infection of ACE2 expressing cell monolayers (WT spike). Kind of data set: Infectivity of ACE2 expressing cell monolayers by virus (WT spike) (FIGS. 3-6). It is filed as cell-based. As to conditions: for infectivity of cells: concentrations between 1 mM and 0.01 mM. Here is the method: This is equivalent to a high dose of 515 mg/kg (1 mM) to the lowest dose of 5.15 mg/kg (0.01 mM). Assuming 100% biological distribution in a 70 kg human, 10^-4M is a dose of 3.5 g and 10^-5M is 350 mg.
This is equivalent to a high dose of 515 mg/kg (1 mM) to the lowest dose of 5.15 mg/kg.

The test system of data set [2] is ACE2. It is filed as cell-based.
A short description of data set [3]: LD50. It is filed as in vivo. As to conditions: 70 kg human.
The conditions of data set [4]: in vivo; cited from earlier work.
Data set [5] has as its system T. congolense-infected mice. The settings on record: cited from earlier work.
Data set [6] has as its system ACE2. Kind of data set: Externalization of ACE2 on cell surface, anti-human ACE2 antibody / horseradish peroxidase staining (FIG. 2). It is filed as cell-based. The settings on record: human brain endothelial cells, 10 mM Diminazene for 3 hours, n=4. The method, then:
FIG. 2 is a graph of externalization of ACE2 on cell surface after treatment with diminazene. The inventors cultured human brain endothelial cells to confluency and exposed these cells to 10 mM Diminazene for 3 hours after which they were fixed in 3.7% phosphate buffered formaldehyde for 30 mins. Cells were then incubated in 1:250 rabbit antibhuman ACE2 (overnite) followed by washes and then goat anti rabbit horseradish peroxidase (1 h).

Regarding `CC(=O)NCC(=O)O.CC(=O)NCC(=O)O.N=C(N)c1ccc(N=NNc2ccc(C(=N)N)cc2)cc1` [diminazene aceturate], the “infectivity of cells expressing WT spike (amount of green signal produced by viral infection)” value in data set [1] (ACE2 expressing cell monolayers, infectious ratio 5:100 viruses per cell, 1 mM to 0.01 mM, FIG. 6) is “dose-dependent reduction in the infectivity of cells expressing WT spike”. Besides, in data set [2], the “externalization of ACE2” value is reported as “concentration-dependently causes externalization of ACE2”. Moreover, in data set [2] (target cells, FIG. 1), the “ACE2-mediated binding and signal of VSV virus-expressing COVID-spike protein in target cells” value was “increases ACE2-mediated binding and signal”.

`N=C(N)c1ccc(/N=N/Nc2ccc(C(=N)N)cc2)cc1` [Diminazene, 4,4′-(1-Triazene-1,3-diyl) bis(benzenecarboximidamide)]: in data set [3], the “LD50 as total dose” value is approximately 24 grams. The LD50 in data set [4] was approximately 350 mg/kg. Also, the infectivity of cells entry in data set [1] (infectious ratio 1:100 viruses per cell, FIG. 3) is “dose-dependent reduction in the infectivity of cells”; in data set [1] (infectious ratio 5:100 viruses per cell, FIG. 4) it was “dose-dependent reduction in the infectivity of cells”; in data set [1] (infectious ratio 10:100 viruses per cell, FIG. 5), “dose-dependent reduction in the infectivity of cells”. Further, the “serum pro-inflammatory cytokine levels” value in data set [5] was “reduces serum pro-inflammatory cytokine levels”. Also, the “average ACE2 signal on cell surface of treated monolayers” value in data set [6] is on record as “increased average signal in treated monolayers consistent with externalization of ACE2 on the cell surface”.
